As a reminder, the EC50 is the concentration giving half of the maximal effect. A low value points to a more potent agent. One may read the IC50 as the concentration that inhibits the measured activity by half. By MIC is commonly meant the least concentration at which growth counts as inhibited.

≈ marks a conversion by molar mass, not a printed value. Where two headings read alike, the source gives them in different places.

One experiment deals with Adeno-5. The experiment can be described thus: Plaque reduction neutralization test (NR). Format: cell-based, Adenovirus. The note with it: Adeno-5/NR. Here is the method:
(§1) The Plaque reduction neutralization test (NR) is used to quantify the ability of a dendrimer to neutralize/inactivate virus. The dendrimer solution to be tested is diluted and mixed with a viral suspension. This is incubated to allow the dendrimer to react with the virus. This is poured over a confluent monolayer of host cells. The surface of the cell layer is covered in a layer of agar or carboxymethyl cellulose to prevent the virus from spreading. The concentration of plaque forming units can be estimated by the number of plaques (regions of infected cells) formed after a few days. Depending on the virus, the plaque forming units are measured by microscopic observation, fluorescent labelled antibodies or specific dyes that react with infected cells. The concentration of dendrimer to reduce the number of plaques by 50% compared to the dendrimer free virus gives the EC50 value.
For orientation: In a plaque reduction assay, fewer plaques than in the control indicate reduced infectivity or spread.

Experiment [1] deals with Adenovirus 37 (ATCC #VR-929). Nature of the experiment: Adenoviral replication titer reduction, drug added after infection (control protocol). In kind it is cell-based. To be noted: for Percent reduction of adenoviral replication: Adeno-37, WI-38 cells. An excerpt:
(§2) Adenovirus subtype 5 (ATCC #VR-5) was used with HeLa cells (ATCC #CCL-2), Adenovirus subtype 8 (ATCC #VR-1640) was used with A549 cells (ATCC #CCL-185), Adenovirus subtype 19 (ATCC #VR-254) was used with Chang C cells (ATCC #CCL-20.2) and Adenovirus 37 (ATCC #VR-929) was used with WI-38 cells (ATCC #CCL-75). Both epithelial and fibroblast cell types were used. The recovered virus was titrated in the susceptible cell lines by performing dilutions at 1/10 to 1/100,000 and addition to cells in plates. When cytopathic effect (CPE) was apparent in the virus control, titration plates were classified as positive or negative for cytopathic effect and based on the dilution of the virus applied to the different plates, the 50% tissue-culture infective dose (TCID50) was calculated using the Spearman-Kärber method (Hubert, J J (1984) Spearman-Karber Method in Bioaasay. Hunt, Dubuque, Iowa, pp 65, 66). The TCID50 establishes the dilution at which 50% of the plates show a cytopathic effect (infection). Comparing the TCID50 for sample without SPL7013 with the TCID50 values for samples with different concentrations of SPL7013 provides a measure of the percent reduction of infection achieved by each concentration of SPL7013. This percent reduction represents the activity of SPL7013 against penetration of cells with adenoviruses. A control substance (cidofovir) was tested alongside SPL7013 at 20 μg/mL, 2 μg/mL, 0.2 μg/mL and 0.02 μg/mL (Gordon Y J, Antiviral Research, 1991, 16(1), 11-16). Because cidofovir acts later in the viral replication cycle, target cells were first infected with 0.1 MOI virus and incubated 60 minutes at 37° C.±2° C. Virus was removed, cidofovir was added at the respective concentrations and cells were incubated until CPE reached its maximum. Cells were then lysed and virus was titrated as described above.

For experiment [2], the system named is Adenovirus subtype 19 (ATCC #VR-254). The description is as above. In kind it is cell-based. The note with it: for Percent reduction of adenoviral replication: Adeno-19, Chang C cells.
Excerpt: as §2

In experiment [3] the test system is Adenovirus subtype 5 (ATCC #VR-5). Described as above. In kind it is cell-based. The note with it: for Percent reduction of adenoviral replication: Adeno-5, HeLa cells.
Excerpt: as §2

Experiment [4] has as its system Adenovirus subtype 8 (ATCC #VR-1640). The experiment is described as above. In kind it is cell-based. The note with it: for Percent reduction of adenoviral replication: Adeno-8, A549 cells.
Excerpt: as §2

In the next experiment the test system is Ad5 McEwen. Nature of the experiment: In vivo treatment of adenoviral eye infection, ocular cultures titred by plaque assay. More on the design: species or system NZW female rabbits. To be noted: 0.5% cidofovir in saline, 37 μL per eye twice a day, n = 8-10. As to the method:
Following general anesthesia and corneal scarification, NZW female rabbits were inoculated in each eye with 50 μl of 3.0×10^7 PFU/mL (1.5×10^6 PFU/eye) of Ad5 McEwen. At about 3 hours after inoculation, a swab was taken of the tear film and corneal and conjunctival surfaces into tubes containing 1 mL of outgrowth media, and cultured for adenovirus.
The rabbits were then divided into 3 groups: 3% SPL7013 (n=5), Vehicle (n=5) and 0.5% cidofovir in saline as positive control (n=4). Commencing on day 1, animals were treated in each eye with 37 μL of drug 8 times a day, or 37 μL of control twice a day. Swabs of the tear film and corneal and conjunctival surfaces were taken one hour after treatment.
Ad5 titers were determined on A549 lung carcinoma cell monolayers using a standard plaque assay. The ocular cultures were diluted and inoculated onto A549 monolayers, and the virus adsorbed for 3 hours. Following adsorption, 1 mL of media plus 0.5% methylcellulose was added to each well, and the plates were incubated at 37° C. in a 5% CO2-water vapor atmosphere for 7 days, then stained with 0.5% gentian violet, and plaques were counted.

The subject of the next experiment is Adenovirus. Nature of the experiment: Plaque reduction neutralization test (NR), positive control, subtype not given. Format: cell-based. The note with it: unidentified adenovirus. As to the method: as §1
Ribivirin was included as a positive control.

Experiment [5] has as its system Adeno-1. Nature of the experiment: Plaque reduction neutralization test (NR). Format: cell-based, Adenovirus. The note with it: Adeno-1/NR. As to the method:
as §1

Experiment [6] deals with Adeno-1. Nature of the experiment: Cytopathic assay (CPE). Format: cell-based, Adenovirus. The note with it: Adeno-1/CPE. As to the method: For the Cytopathic assay (CPE) Plates of cells were incubated with the respective adenovirus subtype and drug at different drug concentrations. Cells were incubated until a Cytopathic effect was clearly observed in plates where cells and virus were plated without drug. In plates where drug was added, the cytopathic effect was quantified using a light microscope and expressed as 0% (no effect) up to 100% (effect as strong as in the no drug control plates). CPE readings were plotted against the drug concentration and the EC50 value was determined as the drug concentration where 50% CPE was observed.
On the technique in general: Damage to the host cells serves as the signal in cytopathic effect assays.

Experiment [7] has as its system Gardnerella vaginalis ATCC 14018 (MMX 4153). The experiment can be described thus: Serial passage resistance development, MIC. Format: cell-based. The note with it: for MIC: Gardnerella vaginalis.
The test system of experiment [8] is Mobiluncus curtisii ATCC 35241 (MMX 4145). Nature of the experiment: Serial passage resistance development, MIC. The note with it: for MIC: Mobiluncus curtisii. In kind it is cell-based.
Experiment [9] deals with Lactobacillus acidophilus MMX 5716. The experiment can be described thus: Serial passage resistance development, MIC. In kind it is cell-based. The note with it: for MIC: Lactobacillus acidophilus.
The subject of experiment [10] is Prevotella bivia MMX 3447. The experiment can be described thus: Serial passage resistance development, MIC. The note with it: for MIC: Prevotella bivia. Format: cell-based.
The mark [11] stands for this setting: ATCC14018, read-out: MIC after serial passage.
[12] abbreviates: ATCC14018, read-out: MIC at baseline.

The compound [NH3][PAMAM]2[CSNH-3,5-Ph(SO3Na)2]24 had an EC50 in the experiment with Adeno-5 of 150 µg/mL.
On to `Nc1ccn(C[C@@H](CO)OCP(=O)(O)O)c(=O)n1` [cidofovir], for which the “Percent reduction of adenoviral replication” value (from here on “Percent reduction”) in experiment [1] (cidofovir 0.02 μg/mL) is 0.00%; in experiment [1] (cidofovir 0.2 μg/mL), 57.83%; in experiment [1] (cidofovir 2 μg/mL), 99.99%; in [1] (cidofovir 20 μg/mL) it was greater than 99.99%; in [2] (cidofovir 0.02 μg/mL), 0.00%; in [2] (cidofovir 0.2 μg/mL) it was 0.00%. In addition, the “Percent reduction” value in [2] (cidofovir 2 μg/mL) amounted to 43.77%; in experiment [2] (cidofovir 20 μg/mL), 94.38%; in [3] (cidofovir 0.02 μg/mL) it was 68.38%; in experiment [3] (cidofovir 0.2 μg/mL), 82.22%; in [3] (cidofovir 2 μg/mL), 86.66%; in experiment [3] (cidofovir 20 μg/mL), 90.00%. Besides, the “Percent reduction” value is 90.00% in [4] (cidofovir 0.02 μg/mL), 98.22% in [4] (cidofovir 0.2 μg/mL), 98.67% in experiment [4] (cidofovir 2 μg/mL) and 99.00% in [4] (cidofovir 20 μg/mL). In addition, the IC50 in experiment [1] (unidentified adenovirus, Adeno-37, estimated, molar basis (279 g/mol)) is 112 nM; in [2] (unidentified adenovirus, Adeno-19, estimated, molar basis (279 g/mol)), 52400 nM; in experiment [3] (unidentified adenovirus, Adeno-5, estimated, molar basis (279 g/mol)), 559 nM; in experiment [4] (unidentified adenovirus, Adeno-8, estimated, molar basis (279 g/mol)) it was 112 nM. For the same compound, the “% Ad5 -Positive cultures” value was 100% in the experiment with Ad5 McEwen (Day 0 (before treatment)), 100% with Ad5 McEwen (Day 1), 100% in the experiment with Ad5 McEwen (Day 3) and 75% in the experiment on Ad5 McEwen (Day 4).
`NC(=O)c1ncn([C@@H]2O[C@H](CO)[C@@H](O)[C@H]2O)n1` [Ribavirin] showed an EC50 in the experiment on Adenovirus of 10 µg/mL (≈ 40.9 µM).
As to “[BHALys][Lys]32deoxycholicacid[NHCSNH-4-ph-SO3Na]63”, the figures for the EC50 in the experiment on Adeno-1 [5] and in the experiment on Adeno-1 [6] were 10 µg/mL and 20 µg/mL, respectively.
“[NH3][PAMAM]4NHCSNH-2-naphth-5,7-(SO3Na)2]24” had an EC50 in the experiment with Adeno-1 [6] of 20 µg/mL.
With `Cc1ncc([N+](=O)[O-])n1CCO` [Metronidazole], the MIC was greater than 128 µg/mL in experiment [7] (setting [11]); 4 µg/mL (≈ 23.4 µM) in [7] (setting [12]); greater than 128 µg/mL in experiment [8] (ATCC35241, read-out: MIC after serial passage); 8 µg/mL (≈ 46.7 µM) in [8] (ATCC35241, read-out: MIC at baseline). Moreover, the “Fold increase of MIC” value in experiment [7] (by passage 7) was greater than 64 fold; in [8] (by passage 5) it was greater than 16 fold.
For `CO[C@H]1/C=C/O[C@@]2(C)Oc3c(C)c(O)c4c(O)c(c5c(nc6cc(C)ccn65)c4c3C2=O)NC(=O)/C(C)=C\C=C\[C@H](C)[C@H](O)[C@@H](C)[C@@H](O)[C@@H](C)[C@H](OC(C)=O)[C@@H]1C` [Rifaximin], the MIC in [7] (setting [11]) stood at 128 µg/mL (≈ 163 µM); in experiment [7] (setting [12]), 0.06 µg/mL (≈ 0.0763 µM); in experiment [9] (MMX5716, read-out: MIC after serial passage), 64 µg/mL (≈ 81.4 µM); in experiment [9] (MMX5716, read-out: MIC at baseline), 1 µg/mL (≈ 1.27 µM); in experiment [10] (MMX3447, read-out: MIC after serial passage), 0.12 µg/mL (≈ 0.153 µM); in experiment [10] (MMX3447, read-out: MIC at baseline) it was 0.03 µg/mL (≈ 0.0382 µM). For the same compound, the results for the “Fold increase of MIC” value in [7] (by passage 9), in [9] (by passage 9) and in experiment [10] (passage number not given) were greater than 2000 fold, 64 fold and 4 fold, respectively. In experiment [8] (10 serial passages), the “Change of MIC during passage (in words)” value is given as “No apparent increase”.

The record behind these values is patent US10149885B2, “Method of treatment or prophylaxis of infections of the eye” (STARPHARMA PTY LIMITED, priority 2012, dated 2018).
